Results from US20130231311A1, “NOVEL FORMULATIONS FOR TREATMENT OF MIGRAINE” (ZOGENIX, INC., priority 2008, published 2013).
Values joined by “and” are separate entries in the source; they are usually repeats but may differ in a detail not shown here. Identical values can stand only once. Like-named read-outs stand apart in the source and are kept apart here. Values belong to the molecule of their own block, whether it stands above or below them.

Assays:
[1] = in vivo; cited from earlier work
migraine [2] = conditions: cited from earlier work
[3] = time to peak plasma concentration of triptans (FIG. 3); conditions: in vivo
migraine [4] = assay: pain relief at 2 hours, injected versus oral sumatriptan (FIG. 2); format: in vivo; conditions: via injection, 107 minutes after maximum plasma concentration
Description: (§1) FIG. 2 is a Table comparing pharmacokinetic and pharmacodynamic parameters of subcutaneously injected and oral sumatriptan.
(§2) FIG. 2 compares pharmacokinetic parameters of injected sumatriptan with oral sumatriptan.

migraine [5] = conditions: in vivo; cited from earlier work
[6] = pharmacokinetic parameters of injected versus oral sumatriptan (FIG. 2); format: in vivo; conditions: injected vs oral; injected dose is 3% of the oral dose
Description: as §1, §2

SMILES: CN(C)CCc1c[nH]c2ccc(CS(=O)(=O)N3CCCC3)cc12 [almotriptan]
half life [1]: 3 to 4 h

SMILES: O=C(O)Cc1ccccc1Nc1c(Cl)cccc1Cl [diclofenac]
effectiveness (migraine [2]; intramuscular): 70% and 88%
effectiveness (migraine [2]; oral): 44%

SMILES: CN1CCC[C@@H]1Cc1c[nH]c2ccc(CCS(=O)(=O)c3ccccc3)cc12 [eletriptan]
half life [1]: 4 h

SMILES: CN[C@@H]1CCc2[nH]c3ccc(C(N)=O)cc3c2C1 [frovatriptan]
half life [1]: 26 h

SMILES: CNS(=O)(=O)CCc1ccc2[nH]cc(C3CCN(C)CC3)c2c1 [naratriptan]
half life [1]: 5 to 8 h

time to peak plasma concentration, earlier than sumatriptan and zolmitriptan [3]: ~1 h
SMILES: CN(C)CCc1c[nH]c2ccc(Cn3cncn3)cc12 [rizatriptan]
half life [1]: 2 to 3 h

AUC relative to oral dose [6]: about ⅕
maximum concentration relative to oral dose [6]: approximately half
SMILES: CNS(=O)(=O)Cc1ccc2[nH]cc(CCN(C)C)c2c1 [sumatriptan]
pain relief at 2 hours, injected vs oral dose (migraine [4]): better for the injected dose than for the oral dose
half life [1]: 2.5 h
pain relief at two hours compared with rizatriptan (migraine [5]): less than that of rizatriptan

SMILES: CN(C)CCc1c[nH]c2ccc(C[C@H]3COC(=O)N3)cc12 [zolmitriptan]
half life [1]: 3 h
pain relief at two hours compared with rizatriptan (migraine [5]): less than that of rizatriptan
